According to US12570612B2, “Substituted nitrogen heterocyclic compound and anesthetic effect thereof” (priority 2019, dated 2026):
Read-outs that look alike come from different tables or passages of the source.

Assays:
Sprague-Dawley rats [1] = test: animal or person; type: in vivo; conditions: rats; for ED50: Rattus norvegicus, LORR, up and down method, tail vein, class symbols, read-out: ED50
From the text: (§1) Evaluating indicator: The end point of anesthesia: the disappearance of forepaw righting reflex (lorr) was used as the end point of anesthesia; General anesthesia effect: the disappearance of forepaw righting reflex in rats lasting for 30 seconds is taken as the index of general anesthesia effect; Anesthesia recovery index: the recovery of rat forepaw righting reflex was used as the index of anesthesia recovery.

Sprague-Dawley rats [2] = test: Pharmacological effect and adverse reactions under the equivalent dose (2ED50), Group D compounds; type: in vivo
From the text: (§2) Evaluation index: onset time: from the completion of drug injection to the disappearance of forepaw righting reflex in rats; Duration of anesthesia: the time from the disappearance of rat forepaw righting reflex to the recovery of rat forepaw righting reflex; Recovery time of anesthesia: the time from the […] to complete recovery;

Sprague-Dawley rats [3] = type: in vivo; conditions: tail vein
Sprague-Dawley rats [4] = test: animal or person; type: in vivo; conditions: rats; for ED50: LORR, up and down method, tail vein, class symbols
From the text: as §1, with “LORR” for “the disappearance of forepaw righting reflex (lorr)”

Sprague-Dawley rats [5] = test: Pharmacological effect and adverse reactions under the equivalent dose (2ED50), Group C compounds; type: in vivo; conditions: for Righting reflex duration / Sedation duration / Onset time: 2ED50, tail vein, rats, n=8; for Adverse reaction: Convulsions / Adverse reaction: Cough, broken-winded / Adverse reaction: Euphoria / Adverse reaction: Red urine / Adverse reaction: Slower breathing, Tetany convulsion / Adverse reaction: Systemic stiffness, Convulsions, Opisthotonus / Adverse reaction: Tongue stretching / Adverse reaction: Tremor / Adverse reaction: the four limbs rigidity: equivalent dose (2ED50), number of rats of n = 8
From the text: as §2

SD rats = conditions: for After the infusion is stopped: Righting reflex recovery time / Recovery time after stopping infusion: after 1 hour continuous infusion at 2 times the MIR; for After the infusion is stopped: Righting reflex recovery time / Recovery time after stopping infusion / Sedation onset time: SD rats; for Types and incidence of adverse reactions: Red urine / Types and incidence of adverse reactions: Tongue stretching / Types and incidence of adverse reactions: Tremor: continuous infusion 2 x MIR 1 hour, rats affected/rats; for Sedation onset time: continuous tail vein infusion at 2 times the MIR
Method: Experimental Methods: Adult male SD rats with body weight ranging from 250 g to 350 g were selected for continuous infusion test.
Evaluation indexes: the time from the beginning of continuous infusion to the […] of sedation in rats; the time from the cessation of infusion to the restoration of the forepaw turning reflex after 1 hour of continuous infusion; the time from the cessation of infusion to the complete restoration of rats after 1 hour of continuous infusion.

Sprague-Dawley rats [6] = type: in vivo; conditions: tail vein; remark: listed apart in the source
[7] = equivalent dose (2 × ED50), number of rats of n = 8
[8] = Rattus norvegicus, read-out: ED50

SMILES	ED50 (Sprague-Dawley rats [1]) [mg/kg]	Approximate therapeutic index (Sprague-Dawley rats [1])	Minimal lethal dose (Sprague-Dawley rats [3]) [mg/kg]	ED50 (Sprague-Dawley rats [4]; [8]) [mg/kg]	Approximate therapeutic index (Sprague-Dawley rats [4])	Righting reflex duration (Sprague-Dawley rats [5]) [min]	Sedation duration (Sprague-Dawley rats [5]) [min]	Adverse reaction: Convulsions (Sprague-Dawley rats [5])	Adverse reaction: Cough, broken-winded (Sprague-Dawley rats [5])	Adverse reaction: Euphoria (Sprague-Dawley rats [5])	Adverse reaction: Red urine (Sprague-Dawley rats [5])	Adverse reaction: Slower breathing, Tetany convulsion (Sprague-Dawley rats [5])	Adverse reaction: Systemic stiffness, Convulsions, Opisthotonus (Sprague-Dawley rats [5])	Adverse reaction: Tongue stretching (Sprague-Dawley rats [5])	Adverse reaction: Tremor (Sprague-Dawley rats [5])	Adverse reaction: the four limbs rigidity (Sprague-Dawley rats [5])	After the infusion is stopped: Righting reflex recovery time (SD rats) [min]	Recovery time after stopping infusion (SD rats) [min]	Minimal lethal dose (Sprague-Dawley rats [6]) [mg/kg]	Onset time (Sprague-Dawley rats [5]; unit s) [s]	further results
COC(OC)(OC(C)C)C(=O)c1ccnn1[C@H](C)c1ccccc1 [Compound D4]	2 to 6	>5.0	>10.1	–	–	–	–	–	–	–	–	–	–	–	–	–	–	–	–	–	Righting reflex duration (Sprague-Dawley rats [2]; 2ED50, tail vein, rats, n=8): 0.98 ± 0.35 min; Sedation duration (Sprague-Dawley rats [2]; 2ED50, tail vein, rats, n=8): 7.28 ± 1.56 min; Onset time (Sprague-Dawley rats [2]; 2ED50, tail vein, rats, n=8, unit min): <1 min; Adverse reaction: Convulsions (Sprague-Dawley rats [2]; [7]): 0; Adverse reaction: Cough, broken-winded (Sprague-Dawley rats [2]; [7]): 0; Adverse reaction: Euphoria (Sprague-Dawley rats [2]; [7]): 0; Adverse reaction: Four limbs rigidity (Sprague-Dawley rats [2]; [7]): 0; Adverse reaction: Red urine (Sprague-Dawley rats [2]; [7]): 8; Adverse reaction: Slower breathing, Tetany convulsion (Sprague-Dawley rats [2]; [7]): 0; Adverse reaction: Systemic stiffness, Convulsions, Opisthotonus (Sprague-Dawley rats [2]; [7]): 0; Adverse reaction: Tongue stretching (Sprague-Dawley rats [2]; [7]): 0; Adverse reaction: Tremor (Sprague-Dawley rats [2]; [7]): 0
COC(=O)C(=O)c1ccnn1[C@H](C)c1ccccc1 [Compound D11]	> 6	>4.6	>30.2	–	–	–	–	–	–	–	–	–	–	–	–	–	–	–	–	–	–
C[C@H](c1ccccc1)n1cnc(F)c1C(=O)COCCC1CCC1 [Compound C74]	–	–	–	0.04 to 0.5	>42.9	1.37 ± 0.63	5.68 ± 1.10	0	0	0	8	0	0	0	1	0	13 to 18	18 to 24	>6.0	–	Onset time (Sprague-Dawley rats [5]; unit min): <60 s; Types and incidence of adverse reactions: Red urine (SD rats): 6/6; Types and incidence of adverse reactions: Tongue stretching (SD rats): Tongue stretching(4/6); Types and incidence of adverse reactions: Tremor (SD rats): 4/6; Sedation onset time (SD rats): <5 min
CCOCC(=O)c1cncn1[C@H](C)c1ccccc1 [Compound C34]	–	–	–	2 to 10	>2.6	2.26 ± 0.81	4.89 ± 0.98	0	0	1	8	0	6	1	0	0	15 to 20	22 to 28	>12.8	<30	Types and incidence of adverse reactions: Red urine (SD rats): 6/6; Types and incidence of adverse reactions: Tongue stretching (SD rats): Tongue stretching(4/6); Types and incidence of adverse reactions: Tremor (SD rats): 2/6; Sedation onset time (SD rats): <5 min
C[C@H](c1ccccc1)n1cnc(F)c1C(=O)COCC1CC1 [Compound C76]	–	–	–	–	>21.9	1.72 ± 0.61	4.32 ± 0.96	0	0	0	8	0	0	0	1	1	–	–	>15.6	<30	ED50 (Sprague-Dawley rats [4]): ++ (++ means that the measured ED50 is in the range of 0.50-1.00 mg/kg (excluding 0.50 mg/kg, including 1.00 mg/kg))
CCC(CC)OCC(=O)c1cncn1[C@H](C)c1ccccc1 [Compound C36]	–	–	–	2 to 10	>3.0	4.02 ± 1.09	15.57 ± 4.94	0	0	0	8	0	0	0	0	3	–	–	>15.2	<30	–
